Molecules are shown by their SMILES. In brackets after ≈: the same amount, converted by molar mass. Like-named read-outs stand apart in the source and are kept apart here.

Usually inhibition stands for the change of the read-out against control, counted positive when it falls.

For test [1], the system named is Pseudomonas aeruginosa (ATCC 2835). Kind of test: MTS based cell viability assay. The settings on record: for inhibition at 0.5 µg/mL: ATCC2835, drug conc 0.5 ug/ml; for inhibition at 2.5 µg/mL: ATCC2835, drug conc 2.5 ug/ml; for inhibition at 5 µg/mL: ATCC2835, drug conc 5 ug/ml; for inhibition at 7.5 µg/mL: ATCC2835, drug conc 7.5 ug/ml; for inhibition at 10 µg/mL: ATCC2835, drug conc 10 ug/ml; for inhibition at 15 µg/mL: ATCC2835, drug conc 15 ug/ml; for inhibition at 20 µg/mL: ATCC2835, drug conc 20 ug/ml; for inhibition at 25 µg/mL: ATCC2835, drug conc 25 ug/ml.

The test system of test [2] is fluconazole-resistant Cryptococcus neoformans. Nature of the test: Antimicrobial assay MIC-50 / MIC-90, 96 well plate. Type of test: cell-based. As to conditions: for MIC50: Cryptococcus neoformans.
The subject of test [3] is Candida albicans (ATCC10251). Nature of the test: Fungal cell viability assay (MTS).
The mark [4] stands for this setting: Pseudomonas aeruginosa, read-out: Percentage inhibition.

As for `CC1(C)S[C@@H]2[C@H](NC(=O)[C@H](N)c3ccccc3)C(=O)N2[C@H]1C(=O)O` [Ampicillin], in test [1] (setting [4]), the inhibition at 0.5 µg/mL is 39%, the inhibition at 2.5 µg/mL is 39.8%, the inhibition at 5 µg/mL is 41.9% and the inhibition at 7.5 µg/mL worked out at 42.8%. Further, in test [1] (setting [4]), the inhibition at 10 µg/mL was determined as 46.4%, the inhibition at 15 µg/mL came to 62.2%, the inhibition at 20 µg/mL is 69.9% and the inhibition at 25 µg/mL turned out to be 72.3%. The compound also displayed a Percentage inhibition in test [1] (drug conc 0.5 ug/ml) of 38.64%.

As for `OC(Cn1cncn1)(Cn1cncn1)c1ccc(F)cc1F` [Fluconazole only, Fluconazole], in test [2] (pH 5.17), the MIC50 was found to be 12.4 µg/mL (≈ 40.4 µM) and the MIC-90 result is listed as “fails to reach MIC-90”. The MIC50 in test [2] (pH 7.08, read-out: MIC-50) was 12.2 µg/mL (≈ 39.7 µM).

As to `C[C@@H]1[C@H](O)[C@@H](C)/C=C/C=C/C=C/C=C/C=C/C=C/C=C/[C@H](O[C@@H]2O[C@H](C)[C@@H](O)[C@H](N)[C@@H]2O)C[C@@H]2O[C@](O)(C[C@@H](O)C[C@@H](O)[C@H](O)CC[C@@H](O)C[C@@H](O)CC(=O)O[C@H]1C)C[C@H](O)[C@H]2C(=O)O` [amphotericin, Amphotericin B], the “concentration required to achieve 98% inhibition” value in test [3] stood at 10 µg/mL.

With `CO[C@@H]1[C@@H](OC(N)=O)[C@@H](O)[C@H](Oc2ccc3c(O)c(NC(=O)c4ccc(O)c(CC=C(C)C)c4)c(=O)oc3c2C)OC1(C)C` [novobiocin, Novobiocin], the inhibition at 80 µg/mL in test [1] (Pseudomonas aeruginosa, ATCC2835, drug conc 80 ug/ml, read-out: Percentage inhibition) turned out to be 13%.

For `CN[C@H](CC(C)C)C(=O)N[C@H]1C(=O)N[C@@H](CC(N)=O)C(=O)N[C@H]2C(=O)N[C@H]3C(=O)N[C@H](C(=O)N[C@H](C(=O)O)c4cc(O)cc(O)c4-c4cc3ccc4O)[C@H](O)c3ccc(c(Cl)c3)Oc3cc2cc(c3O[C@@H]2O[C@H](CO)[C@@H](O)[C@H](O)[C@H]2O[C@H]2C[C@](C)(N)[C@H](O)[C@H](C)O2)Oc2ccc(cc2Cl)[C@H]1O` [vancomycin, Vancomycin], in test [1] (setting [4]), the inhibition at 0.5 µg/mL was 1.24%, the inhibition at 2.5 µg/mL was found to be 9.83%, the inhibition at 5 µg/mL came to 11.6% and the inhibition at 7.5 µg/mL was determined as 14.2%. Moreover, in test [1] (setting [4]), the inhibition at 10 µg/mL worked out at 16.6%, the inhibition at 15 µg/mL came to 17.6%, the inhibition at 20 µg/mL turned out to be 18% and the inhibition at 25 µg/mL stood at 18.4%.

Values taken from patent US20230404921A1, “LYOTROPIC LIQUID CRYSTALLINE PHASE PARTICLE” (priority 2020, published 2023).
